Source: patent publication US20100331305A1, “OXO-HETEROCYCLE FUSED PYRIMIDINE COMPOUNDS, COMPOSITIONS AND METHODS OF USE” (Genentech, Inc., priority 2009, published 2010)
Values joined by “and” are separate entries in the source; they are usually repeats but may differ in a detail not shown here. Equal entries are not always repeated.

These molecules were tested against mTOR enzyme (mTOR(1360-2549)+GBL) (Homo sapiens, UniProt P42345) (assay: In vitro mTOR kinase assay (TR-FRET)). Conditions: 0.25 nM mTOR+GBL, 8 uM ATP; values tied to compounds by order of Table 1; 'x or y' = two alternative values for separated diastereomers of unassigned stereochemistry; read-out: activity level (Ki) in the mTOR kinase assay.
Sequence of mTOR enzyme (mTOR(1360-2549)+GBL) (P42345 1360-2549, species assumed): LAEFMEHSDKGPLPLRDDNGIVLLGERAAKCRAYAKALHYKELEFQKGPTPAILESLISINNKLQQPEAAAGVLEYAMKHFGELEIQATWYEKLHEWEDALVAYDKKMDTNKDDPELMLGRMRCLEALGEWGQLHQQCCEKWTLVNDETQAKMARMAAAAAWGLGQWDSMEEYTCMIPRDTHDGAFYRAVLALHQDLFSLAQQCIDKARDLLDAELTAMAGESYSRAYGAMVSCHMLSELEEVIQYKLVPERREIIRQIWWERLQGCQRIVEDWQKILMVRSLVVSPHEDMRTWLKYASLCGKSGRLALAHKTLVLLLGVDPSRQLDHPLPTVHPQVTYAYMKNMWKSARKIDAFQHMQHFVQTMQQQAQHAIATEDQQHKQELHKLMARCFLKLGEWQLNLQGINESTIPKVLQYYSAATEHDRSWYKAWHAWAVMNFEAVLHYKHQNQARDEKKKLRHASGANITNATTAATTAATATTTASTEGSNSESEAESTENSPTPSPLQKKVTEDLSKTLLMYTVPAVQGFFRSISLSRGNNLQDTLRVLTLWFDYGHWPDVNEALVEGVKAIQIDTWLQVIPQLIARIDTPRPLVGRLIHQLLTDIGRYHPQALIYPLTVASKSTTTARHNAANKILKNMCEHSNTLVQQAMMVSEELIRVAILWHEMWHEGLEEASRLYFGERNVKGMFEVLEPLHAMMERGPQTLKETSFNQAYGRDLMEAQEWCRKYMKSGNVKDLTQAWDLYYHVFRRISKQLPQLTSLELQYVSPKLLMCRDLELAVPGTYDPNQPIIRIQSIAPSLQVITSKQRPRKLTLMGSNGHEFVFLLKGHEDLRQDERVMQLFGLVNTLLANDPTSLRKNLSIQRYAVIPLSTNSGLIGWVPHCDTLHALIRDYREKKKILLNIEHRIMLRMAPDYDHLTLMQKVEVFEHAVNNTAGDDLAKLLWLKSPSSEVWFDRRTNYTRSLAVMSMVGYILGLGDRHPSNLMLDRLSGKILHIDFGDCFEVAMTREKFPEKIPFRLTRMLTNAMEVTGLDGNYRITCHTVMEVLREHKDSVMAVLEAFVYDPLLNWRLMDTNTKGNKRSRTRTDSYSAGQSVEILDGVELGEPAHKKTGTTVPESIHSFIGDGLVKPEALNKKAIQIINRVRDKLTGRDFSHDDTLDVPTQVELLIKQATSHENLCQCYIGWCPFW
Sequence of mTOR enzyme (mTOR(1360-2549)+GBL) (Q9BVC4 whole entry partner, species assumed): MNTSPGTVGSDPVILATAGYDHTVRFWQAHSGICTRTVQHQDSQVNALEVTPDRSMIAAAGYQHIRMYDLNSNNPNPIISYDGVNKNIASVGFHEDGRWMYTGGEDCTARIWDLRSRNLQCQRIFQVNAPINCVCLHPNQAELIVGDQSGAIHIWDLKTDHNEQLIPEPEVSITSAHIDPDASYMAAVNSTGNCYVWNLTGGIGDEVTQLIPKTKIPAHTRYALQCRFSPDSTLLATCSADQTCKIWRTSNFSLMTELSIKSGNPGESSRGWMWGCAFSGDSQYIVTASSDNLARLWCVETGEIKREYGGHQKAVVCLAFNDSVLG
Format: biochemical
From the text: a. In Vitro mTOR Kinase Assay
The reaction is stopped by an addition of a Terbium-labeled phospho-specific antibody, e.g., Tb-labeled anti-p4E-BP1 T37/T46, (Invitrogen, product #PR8835A), EDTA, and TR-FRET buffer solution (Invitrogen, Product #PR3756B). Product formation is detected by way of time-resolved fluorescence resonance energy transfer (TR-FRET), which occurs when the phosphorylated substrate and labeled antibody are in close proximity due to phospho-specific binding. Enzymatic activity is measured as an increase in TR-FRET signal using a Perkin Elmer Envision plate reader.
Compound activity is tested in 10 point dose curves starting at the highest final concentration of 10 uM. They are serially diluted in 100% DMSO prior to further dilution with assay buffer. […] 8 μL of solution containing 2 nM Tb-anti-p4E-BP1 antibody & 10 mM EDTA diluted TR-FRET buffer is then added and incubated for 30 minutes to stop the reaction. The plate is scanned with the Envision plate reader. Ki values are calculated in Assay Explorer using the Morrison ATP-competitive tight binding equation for Ki apparent determination.

Row | SMILES | Ki
1 | CCNC(=O)Nc1ccc(-c2nc3c(c(N4CCOCC4C)n2)C2CCC(C3)O2)cc1 (single isomer, unassigned) [Example 62 do^2] | 6 nM and 2 nM
2 | CC1COCCN1c1nc(-c2ccc(NC(=O)NC3COC3)cc2)nc2c1C1CCC(C2)O1 (single isomer, unassigned) [Example 63 dp^2] | 10 nM and 2 nM
3 | CCNC(=O)N(CC)C(=O)Nc1ccc(-c2nc3c(c(N4CCOCC4)n2)CCOC3)cc1 [Example 12, 1-ethyl-1-((ethylamino)carbonyl)-3-(4-(4-morpholino-6,8-dihydro-5H-pyrano[3,4-d]pyrimidin-2-yl)phenyl)urea] | 4330 nM
4 | CCNC(=O)N(CC)C(=O)Nc1ccc(-c2nc3c(c(N4CCOC[C@@H]4C)n2)CCOC3)cc1 [Example 13 am, (S)-1-ethyl-1-((ethylamino)carbonyl)-3-(4-(4-(3-methylmorpholino)-6,8-dihydro-5H-pyrano[3,4-d]pyrimidin-2-yl)phenyl)urea] | 1180 nM
5 | C[C@H]1COCCN1c1nc(-c2ccc(S(C)(=O)=O)cc2)nc2c1COCC2 [Example 36, (S)-4-(3-methylmorpholino)-2-(4-(methylsulfonyl)phenyl)-7,8-dihydro-5H-pyrano[4,3-d]pyrimidine] | 102 nM
6 | CNS(=O)(=O)c1ccc(-c2nc3c(c(N4CCOC[C@@H]4C)n2)COCC3)cc1 [Example 37, (S)—N-methyl-4-(4-(3-methylmorpholino)-7,8-dihydro-5H-pyrano[4,3-d]pyrimidin-2-yl)benzenesulfonamide] | 343 nM
7 | C[C@H]1COCCN1c1nc(-c2ccc(NS(C)(=O)=O)cc2)nc2c1COCC2 [Example 38, (S)—N-(4-(4-(3-methylmorpholino)-7,8-dihydro-5H-pyrano[4,3-d]pyrimidin-2-yl)phenyl)methanesulfonamide] | 272 nM
8 | C[C@H]1COCCN1c1nc(-c2ccc(NS(=O)(=O)C3CC3)cc2)nc2c1COCC2 [Example 39, (S)—N-(4-(4-(3-methylmorpholino)-7,8-dihydro-5H-pyrano[4,3-d]pyrimidin-2-yl)phenyl)cyclopropanesulfonamide] | 270 nM
9 | CCS(=O)(=O)Nc1ccc(-c2nc3c(c(N4CCOC[C@@H]4C)n2)COCC3)cc1 [Example 40, (S)—N-(4-(4-(3-methylmorpholino)-7,8-dihydro-5H-pyrano[4,3-d]pyrimidin-2-yl)phenyl)ethanesulfonamide] | 183 nM
10 | COC1CCN(c2nc(-c3ccc(NC(=O)NC4COC4)cc3)nc3c2CCC2(CC2)O3)CC1 [Example 46, 1-(4-(4′-(4-methoxypiperidin-1-yl)-5′,6′-dihydrospiro[cyclopropane-1,7′-pyrano[2,3-d]pyrimidine]-2′-yl)phenyl)-3-(oxetan-3-yl)urea] | 620 nM
11 | COC1CCN(c2nc(-c3ccc(NC(=O)Nc4ccn(C)n4)cc3)nc3c2CCC2(CC2)O3)CC1 [Example 47, 1-(4-(4′-(4-methoxypiperidin-1-yl)-5′,6′-dihydrospiro[cyclopropane-1,7′-pyrano[2,3-d]pyrimidine]-2′-yl)phenyl)-3-(1-methyl-1H-pyrazol-3-yl)urea] | 884 nM
12 | COC1CCN(c2nc(-c3ccc(Nc4nccc(=O)[nH]4)cc3)nc3c2CCC2(CC2)O3)CC1 [Example 48, 2-(4-(4′-(4-methoxypiperidin-1-yl)-5′,6′-dihydrospiro[cyclopropane-1,7′-pyrano[2,3-d]pyrimidine]-2′-yl)phenylamino)pyrimidin-4(3H)-one] | 392 nM
13 | Nc1nc2ccc(-c3nc4c(c(N5C[C@H]6CC[C@@H](C5)O6)n3)CCCO4)cc2[nH]1 [Example 61, 6-(4-((1R,5S)-8-oxa-3-azabicyclo[3.2.1]octan-3-yl)-6,7-dihydro-5H-pyrano[2,3-d]pyrimidin-2-yl)-1H-benzo[d]imidazol-2-amine] | 12 nM
14 | C[C@H]1COCCN1c1nc(-c2ccc3nc(N)[nH]c3c2)nc2c1CCCO2 [Example 64, (S)-6-(4-(3-methylmorpholino)-6,7-dihydro-5H-pyrano[2,3-d]pyrimidin-2-yl)-1H-benzo[d]imidazol-2-amine] | 122 nM
15 | CCNC(=O)Nc1ccc(-c2nc(N3CCOC[C@@H]3C)c3c(n2)[C@@](C)(CCN2CCOCC2)OC3)cc1 [Example 76 eo (R), 1-ethyl-3-(4-((R)-7-methyl-4-((S)-3-methylmorpholino)-7-(2-morpholinoethyl)-5,7-dihydrofuro[3,4-d]pyrimidin-2-yl)phenyl)urea] | 15 nM
16 | CCNC(=O)Nc1ccc(-c2nc(N3CCOC[C@@H]3C)c3c(n2)[C@@](C)(CCN2CCC2)OC3)cc1 [Example 79 er (R), 1-(4-((R)-7-(2-(azetidin-1-yl)ethyl)-7-methyl-4-((S)-3-methylmorpholino)-5,7-dihydrofuro[3,4-d]pyrimidin-2-yl)phenyl)-3-ethylurea] | 57 nM
17 | CCNC(=O)Nc1ccc(-c2nc3c(c(N4CCOC[C@@H]4C)n2)COC3=O)cc1 [Example 90, (S)-1-ethyl-3-(4-(4-(3-methylmorpholino)-7-oxo-5,7-dihydrofuro[3,4-d]pyrimidin-2-yl)phenyl)urea] | 76 nM
18 | COCC[C@@]1(C)OCc2c(N3CCOC[C@@H]3C)nc(-c3cnc(N)nc3)nc21 [Example 101 go (R), 5-((R)-7-(2-methoxyethyl)-7-methyl-4-((S)-3-methylmorpholino)-5,7-dihydrofuro[3,4-d]pyrimidin-2-yl)pyrimidin-2-amine] | 258 nM
19 | COCC[C@]1(C)OCc2c(N3CCOC[C@@H]3C)nc(-c3cnc(N)nc3)nc21 [Example 101 go (S), 5-((S)-7-(2-methoxyethyl)-7-methyl-4-((S)-3-methylmorpholino)-5,7-dihydrofuro[3,4-d]pyrimidin-2-yl)pyrimidin-2-amine] | 393 nM
20 | C[C@H]1COCCN1c1nc(-c2cnc(N)nc2)nc2c1CO[C@]2(C)CCOc1ccccc1 [Example 104 gs (R), 5-((R)-7-methyl-4-((S)-3-methylmorpholino)-7-(2-phenoxyethyl)-5,7-dihydrofuro[3,4-d]pyrimidin-2-yl)pyrimidin-2-amine] | 297 nM
21 | CC1(C)OCc2c(N3[C@@H]4CC[C@H]3COC4)nc(-c3cnc(N)nc3)nc21 [Example 106, 5-(4-((1R,5S)-3-oxa-8-azabicyclo[3.2.1]octan-8-yl)-7,7-dimethyl-5,7-dihydrofuro[3,4-d]pyrimidin-2-yl)pyrimidin-2-amine] | 10 nM
22 | COCC[C@]1(C)OCc2c(N3CCOC[C@@H]3C)nc(-c3ccc(N)nc3)nc21 [Example 111 hf^1] | 101 nM and 30 nM
23 | CC1(C)OCc2c(N3CCOCC3)nc(-c3ccc4nc(N)[nH]c4c3)nc21 [Example 118, 6-(7,7-dimethyl-4-morpholino-5,7-dihydrofuro[3,4-d]pyrimidin-2-yl)-1H-benzo[d]imidazol-2-amine] | 4 nM
24 | C[C@H]1COCCN1c1nc(-c2ccc3nc(N)[nH]c3c2)nc2c1COC2(C)C [Example 122, (S)-6-(7,7-dimethyl-4-(3-methylmorpholino)-5,7-dihydrofuro[3,4-d]pyrimidin-2-yl)-1H-benzo[d]imidazol-2-amine] | 7 nM
25 | CC[C@H]1COCCN1c1nc(-c2ccc(N)nc2)nc2c1CCCO2 [Example 129, (S)-5-(4-(3-ethylmorpholino)-6,7-dihydro-5H-pyrano[2,3-d]pyrimidin-2-yl)pyridin-2-amine] | 11 nM
26 | Nc1ncc(-c2nc3c(c(N4C[C@H]5CC[C@@H](C4)O5)n2)CCCO3)cn1 [Example 131, 5-(4-((1R,5S)-8-oxa-3-azabicyclo[3.2.1]octan-3-yl)-6,7-dihydro-5H-pyrano[2,3-d]pyrimidin-2-yl)pyrimidin-2-amine] | 106 nM
